What follows are compounds tested on Entamoeba histolytica (assay: MMV: Primary screening was performed with each compound at a 30 uM final concentration and in triplicate in sealed 96-well polystyrene microtiter plates. Parasite inocula (100 ul) comprising 20000 parasites/ml were added to each well and grown at 37 degrees C in a humidified atmosphere of 5% CO2 for 72 h. Positive controls consisted of metronidazole at 1 mg/ml. The growth of E. histolytica trophozoites in each well was determined microscopically by measuring the diameters of the confluent cells in drug-containing wells relative to those in the nega- tive-control wells.). Conditions: not given.
Type: functional, organism-based

Structure (SMILES)	IC50 [µM]
Cc1cc(NC(=O)c2cccc(C(F)(F)F)c2)n(-c2nc(-c3ccc4c(c3)OCO4)cs2)n1	> 30
Cc1cccc(-n2ncc3c(O)nc(-n4nc(C)cc4NC(=O)c4cc5ccccc5o4)nc32)c1	> 30
O=C(Nc1ccccc1O)c1ccc(Oc2cccc(C(=O)Nc3ccccc3O)c2)cc1	> 30
Oc1ccccc1CN1CCC2(CCCN(Cc3ccccc3F)C2)C1 (stereo unspecified)	> 30
N=c1n(CCN2CCCCC2)c2ccccc2n1CC(O)c1cccc(Br)c1 (stereo unspecified)	> 30
COc1cccc(O)c1CN1CCC2(CCCN(Cc3ccc(F)cc3)C2)C1 (stereo unspecified)	> 30
COc1cccc(Nc2nc(NCCO)c3ccccc3n2)c1	> 30
Cc1ccc(-c2cc(C(=O)Nc3ccc(S(=O)(=O)N4CCCCC4)cc3)[nH]n2)c(O)c1	> 30
O=C(NCc1ccco1)C1CCN(S(=O)(=O)c2ccc(Cl)cc2)CC1	> 30
COc1ccc(C(=O)Nc2ccc3nc(N4CCCCC4)cc(C)c3c2)cc1OC	> 30
COCCNCC(O)Cn1c2ccc(Cl)cc2c2cc(Cl)ccc21 (stereo unspecified)	> 30
COc1ccc(N2CCN(C(CNC(=O)C3CCCCC3)c3ccc4c(c3)OCO4)CC2)cc1 (stereo unspecified)	> 30
FC(F)(F)c1ccc(Nc2nnnc3ccccc23)cc1	> 30
c1ccc(-c2ccc(-c3nc4ccccc4[nH]3)cc2)cc1	> 30
CCC(C)NCC(O)(c1ccc(Cl)cc1)c1ccc(Cl)cc1 (stereo unspecified)	> 30
COc1cc2cc(C(=O)Nc3ccccc3)c(N)nc2cc1OC	> 30
COc1cccc(NC(=O)Cn2c(C)c(C#N)c3ccccc32)c1	> 30
Cn1c(=O)c2cc(C(=O)NCCCN3CCCCCC3)sc2c2ccccc21	> 30
Cc1[nH]c(-c2ccc(F)cc2)cc1C(=O)NC1CCN(Cc2ccccc2)CC1	> 30
COc1ccc(CCN2CCC(CN(C)Cc3cnn(-c4ccccc4)c3)CC2)cc1	> 30
O=C(NC(c1ccccc1)c1ccc2cccnc2c1O)c1ccccc1 (stereo unspecified)	> 30
COCCNC(=O)c1ccc(OC2CCN(Cc3ccc(F)c(F)c3)CC2)c(Cl)c1	> 30

Structure (SMILES)	IC50 [µM]
Oc1ccccc1CN1CCN(C(c2ccccc2)c2ccccc2)CC1	> 30
O=C(NC1CCCC1)c1ccc(N2CCC(NCc3cccc(C(F)(F)F)c3)CC2)cc1	> 30
CCOc1cc(Br)c(C(C)NC(=O)c2cccc(OC)c2)cc1OCC (stereo unspecified)	> 30
CC(C)=CCN1CCC(C(=O)Nc2ccc(-c3nc4ccccc4[nH]3)cc2)CC1	> 30
CCN(CC)CCn1c(=N)n(CC(O)c2ccc(Cl)c(Cl)c2)c2ccccc21 (stereo unspecified)	> 30
CCOc1cc(Cl)c(C(C)NC(=O)c2cccc(OC)c2)cc1OCC (stereo unspecified)	> 30
O=C(CCc1ccco1)NC1CCN(CC2(c3ccc(Cl)cc3)CCC2)CC1	> 30
FC(F)(F)c1cccc(Nc2nc(-c3ccccc3)nc3ncccc23)c1	> 30
CCN1CCN(c2cc(C)c3cc(NC(=O)c4ccc(OC)c(OC)c4)ccc3n2)CC1	> 30
Cc1ccc(Cl)cc1N1CCN(CCCNC(=O)C2CCN(c3nc4ccccc4[nH]3)CC2)CC1	> 30
COc1ccc(CNC2CCN(c3ccc(NC(=O)c4cccc(Cl)c4)cc3)CC2)cc1OC	> 30
COCCN(C(=O)Cc1cccs1)C(C(=O)NCc1ccc(OC)cc1)c1ccc(C(C)C)cc1 (stereo unspecified)	> 30
Cc1ccc(CSCc2ccc(C(=O)NC3CC3)o2)cc1	> 30
CC(NCc1ccccc1)c1cc(Cl)ccc1O (stereo unspecified)	> 30
CN1CCN(c2c3c(c(C#N)c4nc5ccccc5n24)CCC3)CC1	> 30
FC(F)(F)c1cccc(CNC2CCN(CCc3ccccc3)CC2)c1	> 30
Oc1ccc(Cl)cc1CNc1nc2ccccc2[nH]1	> 30
O=C(c1ccccc1F)N(Cc1ccc(Cl)cc1)c1ccccn1	> 30
COc1ccc(C(=O)Nc2ccc(Cl)cc2C(=O)Nc2ccncc2)cc1	> 30
O=C(Nc1ccc(CN2CCOCC2)cc1)c1ccc(-c2ccc(Br)cc2)o1	> 30
CC(=O)NCCc1nc2ccccc2n1Cc1ccc(C(C)C)cc1	> 30

These compounds were tested on Toxoplasma gondii (assay: MMV: A total of 100ul of inoculum was added to each well (parasite/cell ratio, ~10:1; final volume, 200 ul). Six hours after inoculation, nonadherent parasites were removed, and 100 ul of complete DMEM (1% penicillin-streptomycin, 3% FBS) supplemented with inhibitors at different concentrations (2-fold serial dilutions starting from 30 uM) was added to all except the negative-control wells. Positive controls, consisting of pyrimethamine (PYR) and sulfadiazine (SDZ) (20-mg/ml stocks in DMSO), were tested at a 2mg/ml final concentration. Each test was performed in triplicate.). Conditions: 6 h.
Type: functional, organism-based

Structure (SMILES)	IC50 [µM]
Cc1cc(NC(=O)c2cccc(C(F)(F)F)c2)n(-c2nc(-c3ccc4c(c3)OCO4)cs2)n1	> 30
Cc1cccc(-n2ncc3c(O)nc(-n4nc(C)cc4NC(=O)c4cc5ccccc5o4)nc32)c1	> 30
O=C(Nc1ccccc1O)c1ccc(Oc2cccc(C(=O)Nc3ccccc3O)c2)cc1	13.2
Oc1ccccc1CN1CCC2(CCCN(Cc3ccccc3F)C2)C1 (stereo unspecified)	> 30
N=c1n(CCN2CCCCC2)c2ccccc2n1CC(O)c1cccc(Br)c1 (stereo unspecified)	> 30
COc1cccc(O)c1CN1CCC2(CCCN(Cc3ccc(F)cc3)C2)C1 (stereo unspecified)	> 30
COc1cccc(Nc2nc(NCCO)c3ccccc3n2)c1	> 30
Cc1ccc(-c2cc(C(=O)Nc3ccc(S(=O)(=O)N4CCCCC4)cc3)[nH]n2)c(O)c1	> 30
O=C(NCc1ccco1)C1CCN(S(=O)(=O)c2ccc(Cl)cc2)CC1	> 30
COc1ccc(C(=O)Nc2ccc3nc(N4CCCCC4)cc(C)c3c2)cc1OC	25.7
COCCNCC(O)Cn1c2ccc(Cl)cc2c2cc(Cl)ccc21 (stereo unspecified)	> 30
COc1ccc(N2CCN(C(CNC(=O)C3CCCCC3)c3ccc4c(c3)OCO4)CC2)cc1 (stereo unspecified)	26.6
FC(F)(F)c1ccc(Nc2nnnc3ccccc23)cc1	> 30
c1ccc(-c2ccc(-c3nc4ccccc4[nH]3)cc2)cc1	> 30
CCC(C)NCC(O)(c1ccc(Cl)cc1)c1ccc(Cl)cc1 (stereo unspecified)	> 30
COc1cc2cc(C(=O)Nc3ccccc3)c(N)nc2cc1OC	> 30
COc1cccc(NC(=O)Cn2c(C)c(C#N)c3ccccc32)c1	> 30
Cn1c(=O)c2cc(C(=O)NCCCN3CCCCCC3)sc2c2ccccc21	> 30
Cc1[nH]c(-c2ccc(F)cc2)cc1C(=O)NC1CCN(Cc2ccccc2)CC1	> 30
COc1ccc(CCN2CCC(CN(C)Cc3cnn(-c4ccccc4)c3)CC2)cc1	> 30
O=C(NC(c1ccccc1)c1ccc2cccnc2c1O)c1ccccc1 (stereo unspecified)	> 30
COCCNC(=O)c1ccc(OC2CCN(Cc3ccc(F)c(F)c3)CC2)c(Cl)c1	> 30

Structure (SMILES)	IC50 [µM]
Oc1ccccc1CN1CCN(C(c2ccccc2)c2ccccc2)CC1	> 30
O=C(NC1CCCC1)c1ccc(N2CCC(NCc3cccc(C(F)(F)F)c3)CC2)cc1	> 30
CCOc1cc(Br)c(C(C)NC(=O)c2cccc(OC)c2)cc1OCC (stereo unspecified)	> 30
CC(C)=CCN1CCC(C(=O)Nc2ccc(-c3nc4ccccc4[nH]3)cc2)CC1	> 30
CCN(CC)CCn1c(=N)n(CC(O)c2ccc(Cl)c(Cl)c2)c2ccccc21 (stereo unspecified)	> 30
CCOc1cc(Cl)c(C(C)NC(=O)c2cccc(OC)c2)cc1OCC (stereo unspecified)	> 30
O=C(CCc1ccco1)NC1CCN(CC2(c3ccc(Cl)cc3)CCC2)CC1	24
FC(F)(F)c1cccc(Nc2nc(-c3ccccc3)nc3ncccc23)c1	> 30
CCN1CCN(c2cc(C)c3cc(NC(=O)c4ccc(OC)c(OC)c4)ccc3n2)CC1	> 30
Cc1ccc(Cl)cc1N1CCN(CCCNC(=O)C2CCN(c3nc4ccccc4[nH]3)CC2)CC1	> 30
COc1ccc(CNC2CCN(c3ccc(NC(=O)c4cccc(Cl)c4)cc3)CC2)cc1OC	> 30
COCCN(C(=O)Cc1cccs1)C(C(=O)NCc1ccc(OC)cc1)c1ccc(C(C)C)cc1 (stereo unspecified)	> 30
Cc1ccc(CSCc2ccc(C(=O)NC3CC3)o2)cc1	22.3
CC(NCc1ccccc1)c1cc(Cl)ccc1O (stereo unspecified)	21.4
CN1CCN(c2c3c(c(C#N)c4nc5ccccc5n24)CCC3)CC1	> 30
FC(F)(F)c1cccc(CNC2CCN(CCc3ccccc3)CC2)c1	> 30
Oc1ccc(Cl)cc1CNc1nc2ccccc2[nH]1	26.8
O=C(c1ccccc1F)N(Cc1ccc(Cl)cc1)c1ccccn1	> 30
COc1ccc(C(=O)Nc2ccc(Cl)cc2C(=O)Nc2ccncc2)cc1	> 30
O=C(Nc1ccc(CN2CCOCC2)cc1)c1ccc(-c2ccc(Br)cc2)o1	> 30
CC(=O)NCCc1nc2ccccc2n1Cc1ccc(C(C)C)cc1	> 30
